The source of these data is US10266526B2, “Substituted 1,2,3-triazoles as SMYD inhibitors for treating cancer” (EPIZYME, INC., priority 2014, dated 2019).

Sequence of SMYD2 (Q9NRG4 whole entry): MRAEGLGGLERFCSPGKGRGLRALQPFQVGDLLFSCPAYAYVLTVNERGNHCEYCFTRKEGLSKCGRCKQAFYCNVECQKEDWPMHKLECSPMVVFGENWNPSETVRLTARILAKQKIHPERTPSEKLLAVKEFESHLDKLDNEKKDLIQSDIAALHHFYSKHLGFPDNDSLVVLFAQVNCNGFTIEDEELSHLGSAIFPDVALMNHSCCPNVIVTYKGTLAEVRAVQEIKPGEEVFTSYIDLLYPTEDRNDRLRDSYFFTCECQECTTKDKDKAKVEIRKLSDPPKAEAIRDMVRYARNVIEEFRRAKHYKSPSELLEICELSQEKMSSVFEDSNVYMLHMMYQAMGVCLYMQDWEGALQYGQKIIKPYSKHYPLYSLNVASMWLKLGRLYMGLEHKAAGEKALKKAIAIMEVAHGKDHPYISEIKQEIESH

The test concerns the target SMYD2 (Homo sapiens (Human), UniProt Q9NRG4). Description: SMYD2 biochemical assay (SMYD2 enzyme assay on peptide substrate, 3H-SAM Flashplate). Particulars: read-out: SMYD2 Biochem IC50; IC50 values are an average of n = 1 to n = 50.
Text: S-adenosylmethionine (SAM), S-adenosylhomocysteine (SAH), bicine, Tween20, dimethylsulfoxide (DMSO), bovine skin gelatin (BSG), and Tris(2-carboxyethyl)phosphine hydrochloride (TCEP) were purchased from Sigma-Aldrich at the highest level of purity possible. ^3H-SAM was purchase from American Radiolabeled Chemicals with a specific activity of 80 Ci/mmol. 384-well streptavidin Flashplates were purchased from PerkinElmer.
The sequence was [sequence](K-Biot)-amide.
Production of Recombinant SMYD2 Enzymes for Biochemical Enzyme Activity Assays
Full length SMYD2 (NP_064582.2) was cloned into a pFastbac-Htb-lic vector with an N-terminal His6 tag and FLAG tag, preceded by a TEV protease cleavage site. The protein was expressed in Sf9 insect cells. Cells were resuspended in lysis buffer (25 mM HEPES-NaOH, pH 7.5, 200 mM NaCl, 5% glycerol, and 5 mM (3-ME) and lysed by sonication. The protein was purified by Ni-NTA (Qiagen), followed by TEV cleavage to remove the His6 tag, subtractive Ni-NTA (Qiagen), and gel filtration chromatography using an S200 column (GE Healthcare). Purified protein was stored in 20 mM Tris-HCl, pH 8.0, 100 mM NaCl, and 1 mM TCEP.
General Procedure for SMYD2 Enzyme Assays on Peptide Substrates
The assays were all performed in a buffer consisting of 20 mM Bicine (pH=7.6), 1 mM TCEP, 0.005% Bovine Skin Gelatin, and 0.002% Tween20, prepared on the day of use. […] DMSO (1 ul) was added to Columns 11, 12, 23, 24, rows A-H for the maximum signal control and 1 ul of SAH, a known product and inhibitor of SMYD2, was added to columns 11, 12, 23, 24, rows I-P for the minimum signal control. A cocktail (40 ul) containing the SMYD2 enzyme was added by Multidrop Combi (Thermo-Fisher). The compounds were allowed to incubate with SMYD2 for 30 min at room temperature, then a cocktail (10 ul) containing ^3H-SAM and peptide was added to initiate the reaction (final volume=51 ul). […] The assays were stopped by the addition of non-radioactive SAM (10 ul) to a final concentration of 600 uM, which dilutes the ^3H-SAM to a level where its incorporation into the peptide substrate is no longer detectable. 50 ul of the reaction in the 384-well polypropylene plate was then transferred to a 384-well Flashplate and the biotinylated peptides were allowed to bind to the streptavidin surface for at least 1 hour before being washed three times with 0.1% Tween20 in a Biotek ELx405 plate washer. The plates were then read in a PerkinElmer TopCount plate reader to measure the quantity of ^3H-labeled peptide bound to the Flashplate surface, measured as disintegrations per minute (dpm) or alternatively, referred to as counts per minute (cpm).
Where dpm=disintegrations per minute, cmpd=signal in assay well, and min and max are the respective minimum and maximum signal controls.
Where top and bottom are the normally allowed to float, but may be fixed at 100 or 0 respectively in a 3-parameter fit. The Hill Coefficient normally allowed to float but may also be fixed at 1 in a 3-parameter fit. I is the compound concentration.
With `CNCCOc1cccc(C(C)N2CC(NC(=O)c3cn(C4CC4)nn3)C2)c1Cl` (stereo not shown) [compound 975, N-(1-(1-(2-chloro-3-(2-(methylamino)ethoxy)phenyl)ethyl)azetidin-3-yl)-1-cyclopropyl-1H-1,2,3-triazole-4-carboxamide], the IC50 stood at 5400 nM.

With `CC(c1cc(Cl)ccc1C(F)(F)F)N1CC(NC(=O)c2cn(C3CC3)nn2)C1` (stereo not shown) [compound 976, N-(1-(1-(5-chloro-2-(trifluoromethyl)phenyl)ethyl)azetidin-3-yl)-1-cyclopropyl-1H-1,2,3-triazole-4-carboxamide], the IC50 is 1800 nM.

On to `CC(c1cccc(OCCN(C)C)c1Cl)N1CC(NC(=O)c2cn(C3CC3)nn2)C1` (stereo not shown) [compound 977, N-(1-(1-(2-chloro-3-(2-(dimethylamino)ethoxy)phenyl)ethyl)azetidin-3-yl)-1-cyclopropyl-1H-1,2,3-triazole-4-carboxamide], for which the IC50 was found to be 7500 nM.

Take `CC(O)COc1cccc(C(C)N2CC(NC(=O)c3cn(C4CC4)nn3)C2)c1Cl` (stereo not shown) [compound 978, N-(1-(1-(2-chloro-3-(2-hydroxypropoxy)phenyl)ethyl)azetidin-3-yl)-1-cyclopropyl-1H-1,2,3-triazole-4-carboxamide]: the IC50 worked out at 1100 nM.

Take `CC(NC(=O)c1cn(C2CC2)nn1)C1CCCCN1C` (stereo not shown) [compound 979, 1-cyclopropyl-N-(1-(1-methylpiperidin-2-yl)ethyl)-1H-1,2,3-triazole-4-carboxamide]: the half-inhibitory concentration (IC50) is over 50000 nM.

As to `CC(C)(c1ccc(OCc2ccccc2)cc1)N1CC(NC(=O)c2cn(C3CC3)nn2)C1` [compound 980, N-(1-(2-(4-(benzyloxy)phenyl)propan-2-yl)azetidin-3-yl)-1-cyclopropyl-1H-1,2,3-triazole-4-carboxamide], the half-inhibitory concentration (IC50) was 990 nM.

As to `CC(NC(=O)c1cc(C2CC2)cnn1)C1CCCCN1C` (stereo not shown) [compound 981, 5-cyclopropyl-N-(1-(1-methylpiperidin-2-yl)ethyl)pyridazine-3-carboxamide], the IC50 was over 50000 nM.

For the compound `COc1cccc(Cn2cc(CN3CC(NC(=O)c4cn(C5CC5)nn4)C3)cn2)c1` [compound 982, 1-cyclopropyl-N-(1-((1-(3-methoxybenzyl)-1H-pyrazol-4-yl)methyl)azetidin-3-yl)-1H-1,2,3-triazole-4-carboxamide], the IC50 stood at 169 nM.

Take `O=C(NC1CN(Cc2ccc(C(O)Cc3ccccc3)cc2)C1)c1cn(C2CC2)nn1` (stereo not shown) [compound 983, 1-cyclopropyl-N-(1-(4-(1-hydroxy-2-phenylethyl)benzyl)azetidin-3-yl)-1H-1,2,3-triazole-4-carboxamide]: the IC50 came out at 1390 nM.

With `O=C(NC1CN(Cc2cnn(Cc3ccc(Cl)cc3)c2)C1)c1cn(C2CC2)nn1` [compound 985, N-(1-((1-(4-Chlorobenzyl)-1H-pyrazol-4-yl)methyl)azetidin-3-yl)-1-cyclopropyl-1H-1,2,3-triazole-4-carboxamide], the IC50 amounted to 3.9 nM.

Take `O=C(NC1CN(Cc2cnn(Cc3ccccc3)c2)C1)c1ncc(C2CC2)[nH]1` [compound 986, N-(1-((1-benzyl-1H-pyrazol-4-yl)methyl)azetidin-3-yl)-5-cyclopropyl-1H-imidazole-2-carboxamide]: the IC50 was over 50000 nM.

Consider `O=C(NC1CN(Cc2cnn(Cc3cccc(Cl)c3)c2)C1)c1cn(C2CC2)nn1` [compound 987, N-(1-((1-(3-chlorobenzyl)-1H-pyrazol-4-yl)methyl)azetidin-3-yl)-1-cyclopropyl-1H-1,2,3-triazole-4-carboxamide], for which the concentration for half-maximal inhibition (IC50) was found to be 24 nM.

Turning to `O=C(NC1CN(Cc2ccc(OCc3nncs3)cc2)C1)c1cn(C2CC2)nn1` [compound 988, N-(1-(4-((1,3,4-thiadiazol-2-yl)methoxy)benzyl)azetidin-3-yl)-1-cyclopropyl-1H-1,2,3-triazole-4-carboxamide], the IC50 was found to be 1900 nM.

Turning to `CC(c1cc(Cl)ccc1Oc1ccc(F)cc1)N1CC(NC(=O)c2cn(C3CC3)nn2)C1` (stereo not shown) [compound 989, N-(1-(1-(5-chloro-2-(4-fluorophenoxy)phenyl)ethyl)azetidin-3-yl)-1-cyclopropyl-1H-1,2,3-triazole-4-carboxamide], the half-inhibitory concentration (IC50) was over 50000 nM.

For `O=C(NC1CN(Cc2cnn(Cc3nccs3)c2)C1)c1cn(C2CC2)nn1` [compound 991, 1-cyclopropyl-N-(1-((1-(thiazol-2-ylmethyl)-1H-pyrazol-4-yl)methyl)azetidin-3-yl)-1H-1,2,3-triazole-4-carboxamide], the concentration for half-maximal inhibition (IC50) stood at 760 nM.

In the case of `O=C(NC1CN(Cc2ccc(OCc3ccccn3)cc2)C1)c1cn(C2CC2)nn1` [compound 992, 1-cyclopropyl-N-(1-(4-(pyridin-2-ylmethoxy)benzyl)azetidin-3-yl)-1H-1,2,3-triazole-4-carboxamide], the half-inhibitory concentration (IC50) was 2700 nM.

Regarding `Cc1ccc(Cn2cc(CN3CC(NC(=O)c4cn(C5CC5)nn4)C3)cn2)cc1` [compound 993, 1-cyclopropyl-N-(1-((1-(4-methylbenzyl)-1H-pyrazol-4-yl)methyl)azetidin-3-yl)-1H-1,2,3-triazole-4-carboxamide], the IC50 is 16 nM.

For the compound `CC(c1ccc(=O)[nH]c1)N1CC(NC(=O)c2cn(C3CC3)nn2)C1` (stereo not shown) [compound 994, 1-cyclopropyl-N-(1-(1-(6-oxo-1,6-dihydropyridin-3-yl)ethyl)azetidin-3-yl)-1H-1,2,3-triazole-4-carboxamide], the 50% inhibitory concentration (IC50) came out at 5400 nM.

With `COc1ccccc1Cn1cc(CN2CC(NC(=O)c3cn(C4CC4)nn3)C2)cn1` [compound 995, 1-cyclopropyl-N-(1-((1-(2-methoxybenzyl)-1H-pyrazol-4-yl)methyl)azetidin-3-yl)-1H-1,2,3-triazole-4-carboxamide], the IC50 came to 1300 nM.

On to `O=C(NC1CN(Cc2ccc(OCc3cscn3)cc2)C1)c1cn(C2CC2)nn1` [compound 999, 1-cyclopropyl-N-(1-(4-(thiazol-4-ylmethoxy)benzyl)azetidin-3-yl)-1H-1,2,3-triazole-4-carboxamide], for which the IC50 was 1100 nM.

On to `CC(NC(=O)c1cn(C2CC2)nn1)C1CCCCN1` (stereo not shown) [compound 1000, 1-cyclopropyl-N-(1-(piperidin-2-yl)ethyl)-1H-1,2,3-triazole-4-carboxamide], for which the IC50 was over 50000 nM.

As to `O=C(NC1CN(Cc2cnn(CC3CCC3)c2)C1)c1cn(C2CC2)nn1` [compound 1001, N-(1-((1-(cyclobutylmethyl)-1H-pyrazol-4-yl)methyl)azetidin-3-yl)-1-cyclopropyl-1H-1,2,3-triazole-4-carboxamide], the IC50 is 1400 nM.

For the compound `COc1ccc(C(C)N2CC(NC(=O)c3cn(C4CC4)nn3)C2)c(Cl)c1` (stereo not shown) [compound 1002, N-(1-(1-(2-chloro-4-methoxyphenyl)ethyl)azetidin-3-yl)-1-cyclopropyl-1H-1,2,3-triazole-4-carboxamide], the half-maximal inhibitory concentration (IC50) came out at 88 nM.

On to `CC(NC(=O)c1cc(C2CC2)cnn1)C1CCCCN1` (stereo not shown) [compound 1003, 5-cyclopropyl-N-(1-(piperidin-2-yl)ethyl)pyridazine-3-carboxamide], for which the IC50 was found to be 19000 nM.

As for `COc1cccc(C(C)N2CC(NC(=O)c3cc(C4CC4)ccn3)C2)c1OC` (stereo not shown) [compound 1005, 4-cyclopropyl-N-(1-(1-(2,3-dimethoxyphenyl)ethyl)azetidin-3-yl)picolinamide], the IC50 is 130 nM.

For `O=C(NC1CN(Cc2cnn(CC3CC3)c2)C1)c1cn(C2CC2)nn1` [compound 1006, 1-cyclopropyl-N-(1-((1-(cyclopropylmethyl)-1H-pyrazol-4-yl)methyl)azetidin-3-yl)-1H-1,2,3-triazole-4-carboxamide], the IC50 was 1700 nM.

Turning to `O=C(NC1CN(Cc2cnn(Cc3ccccc3)c2)C1)c1nnc(C2CC2)s1` [compound 1007, N-(1-((1-benzyl-1H-pyrazol-4-yl)methyl)azetidin-3-yl)-5-cyclopropyl-1,3,4-thiadiazole-2-carboxamide], the IC50 was determined as 72 nM.

`CC(c1cccc(OCCN)c1Cl)N1CC(NC(=O)c2cn(C3CC3)nn2)C1` (stereo not shown) [compound 1009, N-(1-(1-(3-(2-aminoethoxy)-2-chlorophenyl)ethyl)azetidin-3-yl)-1-cyclopropyl-1H-1,2,3-triazole-4-carboxamide]: the 50% inhibitory concentration (IC50) was found to be 5700 nM.

Regarding `CC(=O)Nc1ccc(COc2ccc(C(C)N3CC(NC(=O)c4cn(C5CC5)nn4)C3)cc2)cc1` (stereo not shown) [compound 1020, N-(1-(1-(4-((4-acetamidobenzyl)oxy)phenyl)ethyl)azetidin-3-yl)-1-cyclopropyl-1H-1,2,3-triazole-4-carboxamide], the IC50 is 950 nM.

Consider `O=C(NC1CN(Cc2cnn(Cc3ccccc3)c2)C1)c1nnc(C2CC2)o1` [compound 1021, N-(1-((1-benzyl-1H-pyrazol-4-yl)methyl)azetidin-3-yl)-5-cyclopropyl-1,3,4-oxadiazole-2-carboxamide], for which the 50% inhibitory concentration (IC50) stood at 65 nM.

In the case of `O=C(NC1CN(Cc2cnn(Cc3ccccc3)c2)C1)c1cn(C2CC2)cn1` [compound 1022, N-(1-((1-benzyl-1H-pyrazol-4-yl)methyl)azetidin-3-yl)-1-cyclopropyl-1H-imidazole-4-carboxamide], the half-maximal inhibitory concentration (IC50) was 73 nM.

As to `CN1[C@@H]2CC[C@H]1C[C@H](NC(=O)c1cc(C3CC3)cnn1)C2` [compound 1023, 5-cyclopropyl-N-((1R,3s,5S)-8-methyl-8-azabicyclo[3.2.1]octan-3-yl)pyridazine-3-carboxamide], the IC50 turned out to be 6300 nM.

With `CN1[C@@H]2CC[C@H]1C[C@@H](NC(=O)c1cc(C3CC3)cnn1)C2` [compound 1024, 5-cyclopropyl-N-((1R,3r,5S)-8-methyl-8-azabicyclo[3.2.1]octan-3-yl)pyridazine-3-carboxamide], the IC50 was over 50000 nM.

For the compound `Cn1cc(COc2ccc(CN3CC(NC(=O)c4cn(C5CC5)nn4)C3)cc2)cn1` [compound 1025, 1-cyclopropyl-N-(1-(4-((1-methyl-1H-pyrazol-4-yl)methoxy)benzyl)azetidin-3-yl)-1H-1,2,3-triazole-4-carboxamide], the IC50 was 1200 nM.

By IC50 is commonly meant the concentration that gives 50% inhibition.
